Where two headings read alike, the source gives them in different places.
How the values were obtained:
Dog saphenous vein = Dog saphenous vein isometric recording (contraction, pD2); assay type: cell-based, beagle dog; conditions: Canis lupus familiaris; isolated lateral saphenous vein rings, 37° C., in presence of 5-HT2, H1 and muscarinic antagonists; serotonin 1 μM as reference standard
Procedure: Isometric recordings were performed essentially as described by Humphrey et al (1988). Briefly, lateral saphenous vein ring preparations (3 mm. wide) removed from anaesthetized beagle dogs were suspended under 2g. resting tension, in 30 mL organ baths containing Krebs at 37° C. The experiments were carried out in the presence of 5-HT2, H1 and muscarinic antagonists and serotonin 1 μM was used as quantitative reference standard.
(Humphrey P. P. A.; Feniuk W.; Perren M. J.; Connor H. E.; Oxford A. W .; Coates I. H. and Butina D. (1988). GR 43175, a selective agonist for the 5-HT1-like receptor in dog isolated saphenous vein. Br. J. Pharmac. 94, 1123-1132).

5HT1D receptors [1] = target: T1, 5HT1D receptors (Bos taurus, UniProt F1MGM3); assay: Binding to 5HT1D receptors (125I-GTI displacement, calf caudate nucleus membranes)
T1 construct: calf caudate nucleus membrane protein; from tissue; host or cells: calf caudate nucleus membranes
T1 sequence (F1MGM3 1-403): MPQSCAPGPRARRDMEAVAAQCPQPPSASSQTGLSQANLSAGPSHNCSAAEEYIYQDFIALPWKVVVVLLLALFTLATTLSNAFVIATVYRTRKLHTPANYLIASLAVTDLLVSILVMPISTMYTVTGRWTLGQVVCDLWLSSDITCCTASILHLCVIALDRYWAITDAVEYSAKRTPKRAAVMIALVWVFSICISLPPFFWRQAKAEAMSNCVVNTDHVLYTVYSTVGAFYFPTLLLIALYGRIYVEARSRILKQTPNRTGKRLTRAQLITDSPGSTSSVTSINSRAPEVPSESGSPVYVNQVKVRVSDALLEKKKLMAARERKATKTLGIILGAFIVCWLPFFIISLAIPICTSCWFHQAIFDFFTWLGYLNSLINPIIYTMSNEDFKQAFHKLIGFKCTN
Procedure: (§1) Binding to 5HT1D Receptors
(§2) Assays were performed essentially as described by Bruinvels et al. Varying amounts of tested drugs were added to 0.25 mL final volume reaction that included 100 μg of calf caudate nucleus membrane protein, 100 pM (Serotonin-5-0-Carboxymethyl-Glycyl[^125 I]Tyrosinamide (^125 I-GTI), 4 mM CaCl2 and 50 mM Tris HCl buffer, pH 7.4. After incubation at 37° C. for 30 minutes, samples were filtered under reduced pressure using glass fibre filters. The filters were washed with ice-cold buffer and dried. Non-specific binding was defined as that obtained in the presence of 10 μM 5HT. Trapped radioactivity was quantified using a gamma counter. Displacement curves were constructed and the concentration displacing 50% of radioligand was calculated for each tested compound using non-linear regression. Data from at least three different assays run in duplicate was averaged. (Bruinvels A. T.; Lery H.; Palacios J. M. and Hoyer D. 5-HT1D binding sites in various species: similar pharmacological profile in dog, monkey, calf, guinea-pig and human brain membranes. Naunyn-Schmiedeberg's Arch. Pharmacol. (in press)).

5HT1D receptors [2] = assay: as above; conditions: ratio of binding IC50 values, 3H-8-OH-DPAT over 125I-GTI
Procedure: as §1, §2

5HT1A receptors = target: T2, 5HT1A receptors (Rattus norvegicus, UniProt P19327); assay: Binding to 5HT1A receptors (3H-8-OH-DPAT displacement, rat hippocampus membranes)
T2 sequence (P19327 1-422): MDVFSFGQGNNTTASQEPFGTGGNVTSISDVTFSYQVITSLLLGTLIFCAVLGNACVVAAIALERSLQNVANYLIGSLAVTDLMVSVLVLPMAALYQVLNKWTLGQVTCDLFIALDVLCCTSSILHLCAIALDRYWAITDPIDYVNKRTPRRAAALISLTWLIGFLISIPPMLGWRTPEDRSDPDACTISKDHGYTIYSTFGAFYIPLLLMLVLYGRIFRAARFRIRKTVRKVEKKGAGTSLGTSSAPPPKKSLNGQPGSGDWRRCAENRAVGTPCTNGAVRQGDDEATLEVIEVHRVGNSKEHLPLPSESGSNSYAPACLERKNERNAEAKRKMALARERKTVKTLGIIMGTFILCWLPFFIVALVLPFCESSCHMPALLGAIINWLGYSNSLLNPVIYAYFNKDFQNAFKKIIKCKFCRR
Procedure: Binding to 5HT1A receptors
Assays were performed essentially as described by Gozlan et al (1983). Varying amounts of tested drugs were added to 1 mL final volume reaction mixtures that included 100 μg of rat hippocampus membrane protein, 0.5 nM ^3 H-8-OH-DPAT, 4 mM CaCl2, 0.1% ascorbic acid, 10 μM pargyline and 50 mM Tris HCl buffer, pH 7.4. After incubation at 25° C. for 30 minutes, samples were filtered under reduced pressure using glass fibre filters. The filters were washed with ice-cold buffer and dried. Non-specific binding was defined as that obtained in the presence of 10 μM 5HT. Radioactivity was quantified by scintillation counting and data was handled as described for the 5HT1D binding assay. (Gozlan H.; El Mestikawy S.; Pichat L.; Glowinski J. and Hamon M. (1983). Identification of presynaptic serotonin autoreceptors using a new ligand:^3 H-PAT. Nature 305, 140-142).

5-HT1D receptor = conditions: background statement; cited from earlier work
5-HT1A receptor [3] = conditions: background statement; cited from earlier work
5-HT1A receptor [4] = conditions: attributed to affinity for 5-HT1A receptor; cited from earlier work
"5-HT1 -like" receptors = conditions: agonistic action at "5-HT1 -like" receptors; background statement; cited from earlier work
[5] = 5HT1D, calf caudate nucleus membrane, 100 pM 125I-GTI, pH 7.4, 37° C., 30 minutes, read-out: Binding IC50 125I-GTI
[6] = 5HT1A, rat hippocampus membrane, 0.5 nM 3H-8-OH-DPAT, pH 7.4, 25° C., 30 minutes, read-out: Binding IC50 3H-8-OH-DPAT

Row | Compound | EC50 (Dog saphenous vein) [nM] | IC50 (5HT1D receptors [1]; [5]) [nM] | 5HT1A/5HT1D (5HT1D receptors [2]) | IC50 (5HT1A receptors) [nM] | IC50 (5HT1A receptors; [6]) [nM] | vasoconstrictor action in the carotid vascular bed ("5-HT1 -like" receptors) | IC50 (5HT1D receptors [1]) [nM] | also measured
1 | CNS(=O)(=O)Cc1ccc2[nH]cc(CCN(C)C)c2c1 [Sumatriptan, reference compound] | 871 | 10.4 ± 1 | 44.2 | 460 ± 67 |  |  |  | affinity for 5-HT1D receptor (5-HT1D receptor): high affinity for 5-HT1D receptor; affinity for 5-HT1A receptor (5-HT1A receptor [3]): very important affinity for 5-HT1A receptor; hypotension and other side effects (5-HT1A receptor [4]): causes hypotension by a central nervous system action and other side effects
2 | CN(C)CCc1c[nH]c2ccc(CS(=O)(=O)N3CCCC3)cc12.Cl [Compound 1, 1-[[3-(2-dimethylaminoethyl)-5-indolyl]methanesulphonyl]-pyrrolidine hydrochloride] | 871 | 10.7 ± 0.4 | 77.1 |  | 825 ± 69 |  |  | 
3 | CN1C[C@H](C(=O)N[C@]2(C)O[C@@]3(O)[C@@H]4CCCN4C(=O)[C@H](Cc4ccccc4)N3C2=O)C=C2c3cccc4[nH]cc(c34)C[C@H]21 [ergotamine] |  |  |  |  |  | vasoconstrictor action in the carotid vascular bed |  | 
4 | NCCc1c[nH]c2ccc(O)cc12 [serotonine, 5-Hydroxytryptamine] |  |  |  |  |  | vasoconstrictor action in the carotid vascular bed |  | 
5 | CN(C)CCc1c[nH]c2ccc(CS(=O)(=O)N3CCCCC3)cc12.Cl [Compound 2, 1-[[3-(2-dimethylaminoethyl)-5-indolyl]methanesulphonyl]piperidine hydrochloride] |  |  | 49.3 | 340 ± 0.5 |  |  | 6.9 ± 0.4 | 
6 | CCOC(=O)N1CCN(S(=O)(=O)Cc2ccc3[nH]cc(CCN(C)C)c3c2)CC1 [Compound 11] | 339 |  | 265.6 |  | 850 ± 40 |  | 3.2 ± 0.3 | 

— patent publication US5565447A, “Indole derivatives” (Laboratorios Almirall S.A., priority 1992, dated 1996)
